According to patent US20230041743A1, “1,8-NAPHTHYRIDIN-2-ONE COMPOUNDS FOR THE TREATMENT OF AUTOIMMUNE DISEASE” (Hoffmann-La Roche Inc., priority 2019, published 2023):

biological target: T1, human TLR9 (Homo sapiens, UniProt Q9NR96); experiment: HEK293-Blue-hTLR-9 cells assay (SEAP reporter, ODN2006 stimulation); assay type: cell-based; conditions: HEK293-Blue-hTLR9 cells, ODN2006 ligand, 20 hrs incubation; read-out: HEK/hTLR9 IC50
T1 construct: host or cells: HEK293 (HEK-Blue hTLR9)
T1 sequence (Q9NR96 26-1032): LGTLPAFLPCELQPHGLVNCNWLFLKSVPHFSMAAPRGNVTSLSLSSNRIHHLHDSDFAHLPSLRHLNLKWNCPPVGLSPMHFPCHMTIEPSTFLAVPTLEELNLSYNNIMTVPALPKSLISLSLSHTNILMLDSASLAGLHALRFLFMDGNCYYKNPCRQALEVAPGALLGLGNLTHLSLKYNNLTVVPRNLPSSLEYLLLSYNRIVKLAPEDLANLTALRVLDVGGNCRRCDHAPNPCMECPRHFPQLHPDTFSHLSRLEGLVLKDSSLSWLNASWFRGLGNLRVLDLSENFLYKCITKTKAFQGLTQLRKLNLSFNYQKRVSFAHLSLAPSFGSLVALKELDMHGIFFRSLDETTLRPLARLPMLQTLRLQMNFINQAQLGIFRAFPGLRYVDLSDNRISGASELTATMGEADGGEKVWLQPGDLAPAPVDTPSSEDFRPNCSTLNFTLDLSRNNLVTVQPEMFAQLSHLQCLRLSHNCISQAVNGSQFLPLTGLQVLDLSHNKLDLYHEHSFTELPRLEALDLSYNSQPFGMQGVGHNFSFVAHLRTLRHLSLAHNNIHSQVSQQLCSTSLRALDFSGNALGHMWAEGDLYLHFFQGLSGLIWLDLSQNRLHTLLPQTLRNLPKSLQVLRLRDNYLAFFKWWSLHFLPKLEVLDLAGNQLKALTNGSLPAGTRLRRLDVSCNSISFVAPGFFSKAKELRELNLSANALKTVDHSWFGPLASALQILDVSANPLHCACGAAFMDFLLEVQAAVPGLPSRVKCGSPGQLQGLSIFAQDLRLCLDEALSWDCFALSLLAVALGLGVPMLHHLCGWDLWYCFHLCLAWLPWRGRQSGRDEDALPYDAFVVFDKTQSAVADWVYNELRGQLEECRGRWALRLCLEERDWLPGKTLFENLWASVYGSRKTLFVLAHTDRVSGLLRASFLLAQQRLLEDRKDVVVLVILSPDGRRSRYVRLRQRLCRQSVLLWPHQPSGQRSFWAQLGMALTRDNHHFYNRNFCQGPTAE
Excerpt: HEK293-Blue-hTLR-9 Cells Assay:
A stable HEK293-Blue-hTLR-9 cell line was purchased from InvivoGen (Cat. #: hkb-htlr9, San Diego, Calif., USA). These cells were originally designed for studying the stimulation of human TLR9 by monitoring the activation of NF-κB. A SEAP (secreted embryonic alkaline phosphatase) reporter gene was placed under the control of the IFN-β minimal promoter fused to five NF-κB and AP-1-binding sites. The SEAP was induced by activating NF-κB and AP-1 via stimulating HEK-Blue hTLR9 cells with TLR9 ligands. Therefore the reporter expression was declined by TLR9 antagonist under the stimulation of a ligand, such as ODN2006 (Cat. #: tlrl-2006-1, Invivogen, San Diego, Calif., USA), for incubation of 20 hrs. The cell culture supernatant SEAP reporter activity was determined using QUANTI-Blue™ kit (Cat. #: rep-qb1, Invivogen, San Diego, Calif., USA) at a wavelength of 640 nm, a detection medium that turns purple or blue in the presence of alkaline phosphatase.
HEK293-Blue-hTLR9 cells were incubated at a density of 250,000˜450,000 cells/mL in a volume of 170 μL in a 96-well plate in Dulbecco's Modified Eagle's medium (DMEM) containing 4.5 g/L glucose, 50 U/mL penicillin, […], 2 mM L-glutamine, 10% (v/v) heat-inactivated fetal bovine serum with addition of 20 μL test compound in a serial dilution in the presence of final DMSO at 1% and 10 μL of 20 uM ODN2006 in above DMEM, perform incubation under 37° C. in a CO2 incubator for 20 hrs. Then 20 μL of the supernatant from each well was incubated with 180 μL Quanti-blue substrate solution at 37° C. for 2 h and the absorbance was read at 620˜655 nm using a spectrophotometer. The signaling pathway that TLR9 activation leads to downstream NF-κB activation has been widely accepted, and therefore similar reporter assay was modified for evaluating TLR9 antagonist.

Row | IC50 [nM] | Compound
1 | 222 | C[C@@H]1CNCCN1c1ccc2c(c1)CN1[C@H](C)CN(c3cc(=O)n(C)c4ncccc34)C[C@H]21 [Example 17, 4-[(4R,10bS)-4-methyl-8-[(2R)-2-methylpiperazin-1-yl]-3,4,6,10b-tetrahydro-1H-pyrazino[2,1-a]isoindol-2-yl]-1-methyl-1,8-naphthyridin-2-one]
2 | 105 | C[C@@H]1CN(c2cc(=O)n(C)c3ncccc23)C[C@@H]2c3ccc([C@H]4CC[C@@H](N5CCOCC5)CC4)cc3CN12 [Example 27B, 4-[(4R,10bS)-4-methyl-8-(cis-4-morpholinocyclohexyl)-3,4,6,10b-tetrahydro-1H-pyrazino[2,1-a]isoindol-2-yl]-1-methyl-1,8-naphthyridin-2-one]
3 | 262 | C[C@@H]1CN(c2cc(=O)n(C)c3ncccc23)C[C@@H]2c3ccc(N4CC(C)(N)C4)cc3CN12 [Example 1, 4-[(4R,10bS)-8-(3-amino-3-methyl-azetidin-1-yl)-4-methyl-3,4,6,10b-tetrahydro-1H-pyrazino[2,1-a]isoindol-2-yl]-1-methyl-1,8-naphthyridin-2-one]

Further lines, the compound ahead of its results:

Row | Compound | IC50 [nM]
4 | C[C@@H]1CN(c2ccc3c(c2)CN2[C@H](C)CN(c4cc(=O)n(C)c5ncccc45)C[C@H]32)CCN1 [Example 14, 4-[(4R,10bS)-4-methyl-8-[(3R)-3-methylpiperazin-1-yl]-3,4,6,10b-tetrahydro-1H-pyrazino[2,1-a]isoindol-2-yl]-1-methyl-1,8-naphthyridin-2-one] | 144
5 | C[C@@H]1CN(c2cc(=O)n(C)c3ncccc23)C[C@@H]2c3ccc(N4CCOC[C@H](N)C4)cc3CN12 [Example 22, 4-[(4R,10bS)-8-[(6R)-6-amino-1,4-oxazepan-4-yl]-4-methyl-3,4,6,10b-tetrahydro-1H-pyrazino[2,1-a]isoindol-2-yl]-1-methyl-1,8-naphthyridin-2-one] | 113
6 | C[C@@H]1CN(c2cc(=O)n(C)c3ncccc23)C[C@@H]2c3ccc(N4CC5(CNCCO5)C4)cc3CN12 [Example 3, 4-[(4R,10bS)-4-methyl-8-(5-oxa-2,8-diazaspiro[3.5]nonan-2-yl)-3,4,6,10b-tetrahydro-1H-pyrazino[2,1-a]isoindol-2-yl]-1-methyl-1,8-naphthyridin-2-one] | 325
7 | COC[C@@H]1CNCCN1c1ccc2c(c1)CN1[C@H](C)CN(c3cc(=O)n(C)c4ncccc34)C[C@H]21 [Example 10, 4-[(4R,10bS)-8-[(2S)-2-(methoxymethyl)piperazin-1-yl]-4-methyl-3,4,6,10b-tetrahydro-1H-pyrazino[2,1-a]isoindol-2-yl]-1-methyl-1,8-naphthyridin-2-one] | 248
8 | C[C@@H]1CN(c2cc(=O)n(C)c3ncccc23)C[C@@H]2c3ccc(N4C[C@H]5NCCO[C@@H]5C4)cc3CN12 [Example 6, 4-[(4R,10bS)-8-[(4aR,7aR)-3,4,4a,5,7,7a-hexahydro-2H-pyrrolo[3,4-b][1,4]oxazin-6-yl]-4-methyl-3,4,6,10b-tetrahydro-1H-pyrazino[2,1-a]isoindol-2-yl]-1-methyl-1,8-naphthyridin-2-one] | 197
9 | CO[C@H]1CN(c2ccc3c(c2)CN2[C@H](C)CN(c4cc(=O)n(C)c5ncccc45)C[C@H]32)CC[C@@H]1N [Example 8, 4-[(4R,10bS)-8-[(3S,4S)-4-amino-3-methoxy-1-piperidyl]-4-methyl-3,4,6,10b-tetrahydro-1H-pyrazino[2,1-a]isoindol-2-yl]-1-methyl-1,8-naphthyridin-2-one] | 226
10 | C[C@@H]1CN(c2cc(=O)n(C)c3ncccc23)C[C@@H]2c3ccc([C@@H]4C[C@H]5COC[C@@H](C4)N5)cc3CN12 [Example 28B, 4-[(4R,10bS)-4-methyl-8-(exo-3-oxa-9-azabicyclo[3.3.1]nonan-7-yl)-3,4,6,10b-tetrahydro-1H-pyrazino[2,1-a]isoindol-2-yl]-1-methyl-1,8-naphthyridin-2-one] | 255
